# The supplement of paper PMC10307832
# Experiments:
# Test in all cases: relative viability (nuclei count vs DMSO), 5 days (fraction); higher = more cells survive
# Etoposide + AZD7762 = compound: COc1cc([C@@H]2c3cc4c(cc3[C@@H](O[C@@H]3O[C@@H]5CO[C@@H](C)O[C@H]5[C@H](O)[C@H]3O)[C@H]3COC(=O)[C@H]23)OCO4)cc(OC)c1O [Etoposide] + NC(=O)Nc1cc(-c2cccc(F)c2)sc1C(=O)N[C@H]1CCCNC1 [AZD7762] (partner 0.2 µM)
# Procedure, shortened: (§1)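 Cells from lung cancer lines were seeded into 1536-well plates and, one day later, dosed by pin tool. Treatments were either a single drug or a fixed dose of an anchor drug with five library-drug doses (not always all listed) in √10 steps. After 5 days, nuclei were stained in a one-step fixation (final 0.05% Triton X-100, 1% formaldehyde, 1 ug/ml Hoechst) and counted on 4× images, and relative viability is the treated-to-vehicle nuclei ratio, as the median of duplicate plates.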
# Bleomycin + Bortezomib = compound: CC1=C(N=C(N=C1N)[C@H](CC(=O)N)NC[C@@H](C(=O)N)N)C(=O)N[C@@H]([C@H](C2=CN=CN2)OC3C(C(C(C(O3)CO)O)O)OC4C(C(C(C(O4)CO)O)OC(=O)N)O)C(=O)N[C@H](C)[C@H]([C@H](C)C(=O)N[C@@H]([C@@H](C)O)C(=O)NCCC5=NC(=CS5)C6=NC(=CS6)C(=O)NCCC[S+](C)C)O [Bleomycin] + CC(C)C[C@H](NC(=O)[C@H](Cc1ccccc1)NC(=O)c1cnccn1)B(O)O [Bortezomib] (partner 0.002 µM); settings: main component drawn
# Procedure, shortened: as §1
# Bleomycin + Crizotinib = compound: CC1=C(N=C(N=C1N)[C@H](CC(=O)N)NC[C@@H](C(=O)N)N)C(=O)N[C@@H]([C@H](C2=CN=CN2)OC3C(C(C(C(O3)CO)O)O)OC4C(C(C(C(O4)CO)O)OC(=O)N)O)C(=O)N[C@H](C)[C@H]([C@H](C)C(=O)N[C@@H]([C@@H](C)O)C(=O)NCCC5=NC(=CS5)C6=NC(=CS6)C(=O)NCCC[S+](C)C)O [Bleomycin] + C[C@@H](Oc1cc(-c2cnn(C3CCNCC3)c2)cnc1N)c1c(Cl)ccc(F)c1Cl [Crizotinib] (partner 1 µM); settings: main component drawn
# Procedure, shortened: as §1
# Etoposide + Bortezomib = compound: COc1cc([C@@H]2c3cc4c(cc3[C@@H](O[C@@H]3O[C@@H]5CO[C@@H](C)O[C@H]5[C@H](O)[C@H]3O)[C@H]3COC(=O)[C@H]23)OCO4)cc(OC)c1O [Etoposide] + CC(C)C[C@H](NC(=O)[C@H](Cc1ccccc1)NC(=O)c1cnccn1)B(O)O [Bortezomib] (partner 0.002 µM)
# Procedure, shortened: as §1
Cell Line,relative viability (Etoposide + AZD7762; first compound 0.01 µM),relative viability (Etoposide + AZD7762; first compound 0.03162 µM),relative viability (Etoposide + AZD7762; first compound 0.1 µM),relative viability (Etoposide + AZD7762; first compound 0.3162 µM),relative viability (Etoposide + AZD7762; first compound 1 µM),relative viability (Bleomycin + Bortezomib; first compound 0.01 µM),relative viability (Bleomycin + Bortezomib; first compound 0.03162 µM),relative viability (Bleomycin + Bortezomib; first compound 0.1 µM),relative viability (Bleomycin + Bortezomib; first compound 0.3162 µM),relative viability (Bleomycin + Bortezomib; first compound 1 µM),relative viability (Bleomycin + Crizotinib; first compound 0.01 µM),relative viability (Bleomycin + Crizotinib; first compound 0.03162 µM),relative viability (Bleomycin + Crizotinib; first compound 0.1 µM),relative viability (Bleomycin + Crizotinib; first compound 0.3162 µM),relative viability (Bleomycin + Crizotinib; first compound 1 µM),relative viability (Etoposide + Bortezomib; first compound 0.03162 µM),relative viability (Etoposide + Bortezomib; first compound 0.1 µM),relative viability (Etoposide + Bortezomib; first compound 0.3162 µM),relative viability (Etoposide + Bortezomib; first compound 1 µM),relative viability (Etoposide + Bortezomib; first compound 0.01 µM)
NCI-H2087,1.46,1.3,1.3,1.08,0.78,0.6,0.785,0.645,0.133,0.176,0.617,0.771,0.735,0.303,0.274,0.888,0.864,0.641,0.302,
HCC-366,0.227,0.251,0.187,0.091,0.0373,0.736,0.34,0.293,0.0464,0.0446,0.152,0.137,0.0986,0.0238,0.0225,1.03,0.518,0.135,0.0399,1.04
201T,0.612,0.751,0.47,0.492,0.37,1.12,1,1.01,0.921,0.827,0.997,0.947,0.902,0.843,0.784,1.1,1.01,1.04,0.765,1.04
HCC-827,0.206,0.223,0.185,0.167,0.177,0.948,0.918,0.9,0.464,0.357,0.872,0.95,0.831,0.635,0.274,1.06,1.07,0.803,0.458,1.09
NCI-H650,0.859,0.977,0.563,0.538,0.207,0.548,0.697,0.569,0.259,0.214,0.502,0.718,0.629,0.237,0.303,0.836,0.63,0.417,0.222,0.683
NCI-H596,0.923,1.21,0.662,1.3,0.705,0.662,0.686,0.637,0.402,0.521,0.896,0.661,0.558,0.409,0.475,1.1,,0.968,0.977,0.798
A-427,0.713,0.741,0.569,0.473,0.286,0.857,0.817,0.725,0.167,0.213,0.738,0.776,0.67,0.402,0.223,1.02,0.726,0.819,0.244,0.92
NCI-H460,0.61,0.704,0.407,0.0776,0.0538,0.331,0.286,0.103,0.0317,0.0212,0.331,0.0828,0.0648,0.0162,0.0149,0.763,0.608,0.0494,0.0267,0.933
NCI-H1703,0.149,0.126,,0.121,0.114,0.328,0.276,0.245,0.134,0.125,0.751,0.655,0.676,0.322,0.195,0.519,0.294,0.22,0.198,0.433
NCI-H1792,0.485,0.661,,0.471,0.122,0.871,0.958,0.663,0.323,0.283,0.886,0.971,0.675,0.312,0.258,0.878,0.819,0.897,0.581,0.899
RERF-LC-KJ,0.935,1.1,0.583,0.861,0.967,0.887,0.727,0.625,0.343,0.334,0.541,0.513,0.421,0.23,0.197,1.2,0.986,1.03,0.923,1.04
EMC-BAC-2,1.06,1.11,0.688,0.639,0.334,0.927,0.92,0.868,0.319,0.279,0.628,0.626,0.738,0.318,0.241,1.03,0.729,0.452,0.196,1.07
NCI-H322M,0.473,0.562,0.47,0.502,0.473,1.07,1.13,1.36,0.708,0.592,0.701,0.852,0.908,0.958,0.527,1.22,0.994,1.17,1.07,1.27
NCI-H1975,0.702,0.804,0.508,0.658,0.443,0.27,0.342,0.27,0.16,0.142,0.774,0.693,0.662,0.319,0.241,0.386,0.411,0.322,0.177,0.402
LU99A,0.424,0.351,0.17,0.175,0.117,0.763,0.83,0.602,0.167,0.128,0.344,0.358,0.284,0.12,0.16,1.31,0.661,0.432,0.19,1.31
NCI-H2405,0.754,0.765,0.728,0.638,0.317,0.875,0.932,0.91,0.525,0.371,0.695,0.8,0.713,0.45,0.372,1.05,0.753,0.531,0.746,0.987
HCC-15,1.2,1.34,1.32,1.01,0.777,0.914,1.01,0.815,0.299,0.318,0.731,0.725,0.627,0.326,0.242,1.04,1.13,0.67,0.157,0.959
HCC-44,1.02,1.05,1.15,1.01,0.95,0.544,0.333,0.225,0.153,0.145,0.484,0.256,0.223,0.152,0.138,0.905,1.02,0.781,0.418,1.01
HCC-78,0.808,0.771,0.392,0.658,0.409,0.426,0.372,0.458,0.29,0.31,0.31,0.294,0.297,0.229,0.267,0.5,0.35,0.314,0.229,0.487
NCI-H838,0.884,0.857,0.805,0.787,0.722,0.67,0.204,0.23,0.0877,0.152,0.437,0.32,0.184,0.176,0.172,0.978,0.659,0.624,0.333,0.641
NCI-H2126,0.93,1.08,0.681,0.948,0.919,1.06,1.08,1.08,0.7,0.947,0.932,1.1,0.982,0.948,0.801,1.09,0.801,1,0.659,1.19
BEN,0.828,0.818,,0.665,0.606,0.909,0.868,0.967,0.578,0.609,0.769,0.829,0.94,0.671,0.742,0.869,,0.565,0.6,0.728
LCLC-103H,0.756,0.787,0.597,0.742,0.608,1.07,1.12,1.1,0.556,0.467,0.956,1.01,1,0.915,0.588,1.24,0.93,0.956,0.978,1.1
EKVX,0.759,0.818,0.268,0.344,0.272,0.859,1.04,0.954,0.511,0.318,0.87,0.803,0.7,0.448,0.316,1.18,0.4,0.419,0.372,1
LXF-289,1.07,1.1,1.23,0.892,0.4,0.861,0.944,0.775,0.27,0.135,0.725,0.678,0.679,0.239,0.149,1.07,0.994,0.75,0.252,1.01
ABC-1,0.978,0.851,0.468,0.425,0.369,0.325,0.311,0.275,0.195,0.242,0.799,0.769,0.659,0.191,0.161,0.33,0.261,0.296,0.237,0.301
NCI-H2085,0.831,0.905,0.803,0.911,0.453,0.768,0.875,0.707,0.377,0.366,0.608,0.723,0.671,0.372,0.404,1.08,0.953,0.674,0.354,1.08
LC-2-ad,0.762,0.882,0.853,0.741,0.571,0.943,0.624,0.316,0.127,0.0954,0.428,0.404,0.326,0.226,0.275,1.08,0.977,0.742,0.209,0.9
NCI-H2170,0.721,0.882,,0.881,0.482,,,,,,0.996,1.19,1.12,0.662,0.624,,,,,
NCI-H358,0.512,0.527,0.332,0.288,0.266,,,,,,0.484,0.486,0.514,0.29,0.263,,,,,
